Publication PMC7878295 (Gastroenterology, 2020)
Read-outs that look alike come from different tables or passages of the source.

How the values were obtained:
[1] = system: CYP2C9*2 carrier and non-carrier HLO; format: cell-based, human
[2] = system: human liver organoid (HLO); conditions: 72 h
lipotoxic HLO = assay: Viability in lipotoxic; format: cell-based
BSEP = assay: CLF bile acid transport in HLO; format: cell-based, human; conditions: normal HLO, viable dosing (100 μM, 200 μM)
[3] = system: human liver organoid (HLO)
[4] = system: human liver organoid (HLO); assay: Mitochondrial membrane potential; conditions: treatment for 24h, multiple doses
[5] = Organoid viability after treatment with training compounds; conditions: human, human liver organoids (HLO)
CYP1A2 = CYP1A2 induction in HLO

## COc1ccccc1Oc1c(NS(=O)(=O)c2ccc(C(C)(C)C)cc2)nc(-c2ncccn2)nc1OCCO [Bosentan]
[1]; CC genotype (CYP2C9 enzyme activity normal) HLO
  Positive rate of impaired CLF excretion: 17.1 % of positive
[1]; CT genotype (CYP2C9*2, activity intermediate) HLO
  Positive rate of impaired CLF excretion: 70.8 % of positive

## COc1ccc2c(c1)c(CC(=O)O)c(C)n2C(=O)c1ccc(Cl)cc1 [Indomethacin]
[2]
  concentration at which induced toxicity was detected in cytotoxicity assay: 10 µM

## CCc1ccc(CCOc2ccc(CC3SC(=O)NC3=O)cc2)nc1 (stereo not drawn) [Pioglitazone]
Lipotoxic HLO; 200 μM, 24h, HLO with/without lipotoxic condition
  effect on viability: did not affect viability

## CC(c1cc2ccccc2s1)N(O)C(N)=O (stereo not drawn) [Zileuton]
[2]
  concentration at which induced toxicity was detected in cytotoxicity assay: 100 µM

## Cc1cc2c(cc1CC(=O)c1sccc1S(=O)(=O)Nc1onc(C)c1Cl)OCO2 [sitaxentan]
BSEP
  CLF transport: inhibited CLF transport

## Cc1c(C)c2c(c(C)c1O)CCC(C)(COc1ccc(CC3SC(=O)NC3=O)cc1)O2 (stereo not drawn) [Troglitazone]
[3]
  cell viability at 72 hours relative to TOL, DICLO and BOS: significantly lowered cell viability

## CCN(CC)C(=O)/C(C#N)=C/c1cc(O)c(O)c([N+](=O)[O-])c1 [Entacapone]
[4]
  increase in MMP: increases in MMP were not clearly observed
[5]
  viability at 24 h, 130 µM: 85%
  viability at 72 h, 130 µM: 64%

## CC(=O)N[C@@H](CS)C(=O)O [NAC, N-acetylcysteine]
Lipotoxic HLO; lipotoxic HLO treated with Troglitazone
  rescue of cell viability: cell viability was significantly improved

## COc1ccc2[nH]c([S+]([O-])Cc3ncc(C)c(OC)c3C)nc2c1 (stereo not drawn) [Omeprazol, Omeprazole]
CYP1A2
  CYP1A2 induction response: major CYP induction responses in HLO
